Measured values reported in publication PMC3071374, “High Throughput Screens Yield Small Molecule Inhibitors of Leishmania CRK3:CYC6 Cyclin-Dependent Kinase” (PLoS Neglected Tropical Diseases, 2011).
Read-outs that look alike come from different tables or passages of the source.

Assays:
Leishmania CRK3:CYC6 = Leishmania CRK3:CYC6 (Leishmania major, UniProt O96526); format: biochemical
Protocol: (§1) Leishmania CRK3:CYC6 protein kinase assays were performed in 96-well microtiter plates in a final volume of 25 µl. Each assay point contained 7.5 ng of co-expressed histidine-tagged CRK3:CYC6 protein kinase complex (hereafter referred to as CRK3:CYC6) diluted in enzyme dilution buffer (EDB) (20 mM Tris-HCl pH 7.2, 0.5 mg ml^−1 BSA, 2.5% glycerol and 0.006% Brij-35). Assays were performed using the assay development buffer (ADB) (20 mM MOPS, pH 7.0, 25 mM β-glycerophosphate, 5 mM EGTA, 1 mM NaVO3, 1 mM DTT and 15 mM MgCl2) supplemented with 100 µM ATP, 0.5 µCi of γ-^32P ATP per reaction and histone H1 as a substrate used at 0.4 mg ml^−1. Two and three-fold titrations were set up to determine the concentration of enzyme to be used per assay point (7.5 ng) and to determine the concentrations of selected inhibitors required for 50% inhibition of Leishmania CRK3:CYC6 protein kinase activity (IC50 values), respectively. For IC50 determinations, assay mixes contained DMSO to a final concentration of 2%. Mammalian protein kinase assays were carried out according to the assay protocols developed at Cyclacel. Assays were carried out for 30 minutes at 30°C before stopping the reaction by the addition of an equal volume (25 µl) of 75 mM orthophosphoric acid. Samples were spotted onto a p81 cellulose filterplate (Nunc) and a vacuum applied. Wells were washed 3×200 µl with 75 mM phosphoric acid and the bottom of the plate sealed. 50 µl of Microscint 40 (Perkin Elmer) was added per well before incorporation of radioactivity was determined on a Topcount microplate scintillation counter.

CDK4:CYCD1 = CDK4:CYCD1 (Homo sapiens, UniProt P11802); test: Mammalian protein kinase assay, CDK4:CYCD1; format: biochemical; details: Lexicon azapurine HTS hits
Sequence of CDK4:CYCD1 (P11802 whole entry): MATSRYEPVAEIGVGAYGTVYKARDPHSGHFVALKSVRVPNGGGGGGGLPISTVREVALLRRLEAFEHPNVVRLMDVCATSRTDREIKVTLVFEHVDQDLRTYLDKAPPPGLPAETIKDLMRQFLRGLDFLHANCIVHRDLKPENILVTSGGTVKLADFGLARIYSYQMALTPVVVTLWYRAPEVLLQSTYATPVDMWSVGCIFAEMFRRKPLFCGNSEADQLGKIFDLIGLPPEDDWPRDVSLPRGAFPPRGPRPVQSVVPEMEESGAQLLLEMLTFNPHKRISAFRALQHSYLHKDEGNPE
Sequence of CDK4:CYCD1 (P24385 whole entry partner): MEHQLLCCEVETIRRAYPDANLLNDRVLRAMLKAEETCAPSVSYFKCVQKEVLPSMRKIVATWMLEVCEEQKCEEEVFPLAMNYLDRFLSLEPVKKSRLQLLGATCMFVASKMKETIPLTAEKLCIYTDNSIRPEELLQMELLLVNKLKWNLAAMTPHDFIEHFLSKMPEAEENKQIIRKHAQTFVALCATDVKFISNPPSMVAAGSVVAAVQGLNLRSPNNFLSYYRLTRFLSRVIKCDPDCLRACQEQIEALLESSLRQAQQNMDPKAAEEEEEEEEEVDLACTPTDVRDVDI
Protocol: as §1

WT promastigote L. major = test: L. major promastigote growth inhibition assay (resazurin); format: cell-based; details: for IC50: 5 days at 25°C, read-out: IC50 against WT promastigote L. major; for inhibition of parasite growth in culture (in words): promastigotes and intra-macrophage amastigotes in culture
Protocol: L. major wild type promastigotes (Friedlin strain: WHO designation MHOM/JL/81/Friedlin) were grown at 25°C in HOMEM medium (Invitrogen cat no. 041-94699111) supplemented with 10% (v/v) heat inactivated foetal calf serum (HIFCS) and 1% (v/v) penicillin/streptomycin antibiotics.
CRK3 inhibitors were diluted into HOMEM medium supplemented with 10% HIFCS at twice the final screening concentration. Five-fold or ten-fold serial dilutions were carried out into HOMEM medium supplemented with 10% HIFCS. 100 µl of each drug concentration were added to a 96 well plate in duplicate. 100 µl of five-fold or ten-fold serial dilutions of 1 mM Pentamidine (Sigma) and an equivalent volume of 100% DMSO were included as positive and negative controls, in duplicate, respectively. L. major promastigote cells were diluted to a cell density of 2×10^6 cells ml^−1 in HOMEM media supplemented with 10% HIFCS and 100 µl added to all wells in 96 well plates. Plates were sealed with parafilm and incubated for 5 days at 25°C. After 5 days, 20 µl of filter sterile resazurin solution (12.5 mg resazurin salt in 100 ml PBS) (Sigma) was added to each of the wells and the plate incubated for a further 24 hours at 25°C. Fluorescence was measured using an Envision plate reader (Perkin Elmer) at 540 nm excitation wavelength and 590 nm emission wavelength.

WT amastigote L. major = test: Intra-macrophage L. major amastigote assay; format: cell-based; details: for IC50 / activity against amastigotes (in words): infected peritoneal macrophages; for IC50: read-out: IC50 against WT amastigote L. major
Protocol: Macrophages were harvested from the peritoneum of Balb/C mice, centrifuged at 1000× g for 10 minutes at 4°C and resuspended in fresh RPMI 1640 media supplemented with 10% HIFCS and 1% (v/v) Gentamicin, as described previously. Macrophages were diluted to a cell density of 5×10^5 cells ml^-1 in RPMI supplemented with 10% HIFCS and 100 μl were added to each well of a 16-well Lab-tek cavity slide (50,000 mφ/well) and incubated at 37°C, 5% CO2 for subsequent experiments. […] Inhibitors were set up in a five-fold dilution series in RPMI 1640 medium supplemented with 10% […] of inhibitor were added to the wells in serial dilution and slides incubated for 72 hours at 37°C with 5% CO2. After 72 hours the medium was removed and replaced with fresh medium containing the same concentrations of inhibitors and incubated for a further 48 hours at 37°C with 5% CO2. At the end of the incubation period, the medium was removed, the slides were washed twice with fresh RPMI 1640 medium supplemented with 10% HIFCS then fixed with 100% methanol and stained with 10% Giemsa's stain for 10 minutes. The percentage of infected macrophages and number of amastigotes per macrophage were determined by light microscopy under oil immersion.

[1] = re-synthesised Lexicon azapurine hits
[2] = Lexicon azapurine HTS hits, maximum concentration tested 10 µM
[3] = synthesised azapurine derivatives

Sequence of Leishmania CRK3:CYC6 (Q4Q4U0 entry or part of it): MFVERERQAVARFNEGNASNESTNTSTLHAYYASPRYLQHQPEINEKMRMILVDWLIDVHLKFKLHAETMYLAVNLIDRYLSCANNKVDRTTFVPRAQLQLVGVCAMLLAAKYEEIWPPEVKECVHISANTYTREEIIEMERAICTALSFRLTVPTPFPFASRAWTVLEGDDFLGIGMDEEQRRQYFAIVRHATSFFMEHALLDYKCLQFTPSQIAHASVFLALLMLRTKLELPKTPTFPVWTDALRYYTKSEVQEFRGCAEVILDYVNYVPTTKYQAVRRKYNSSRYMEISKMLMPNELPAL
Sequence of Leishmania CRK3:CYC6 (O96526 entry or part of it): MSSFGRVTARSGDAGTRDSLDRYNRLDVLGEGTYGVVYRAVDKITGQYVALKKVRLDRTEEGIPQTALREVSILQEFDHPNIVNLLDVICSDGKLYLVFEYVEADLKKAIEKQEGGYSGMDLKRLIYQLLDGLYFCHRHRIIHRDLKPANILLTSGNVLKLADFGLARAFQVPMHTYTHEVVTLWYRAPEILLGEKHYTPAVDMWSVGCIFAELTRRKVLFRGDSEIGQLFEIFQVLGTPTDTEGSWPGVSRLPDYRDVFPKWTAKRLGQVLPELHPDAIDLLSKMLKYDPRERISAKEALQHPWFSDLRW

Row | SMILES | IC50 (Leishmania CRK3:CYC6; Lexicon azapurine HTS hits) | IC50 (CDK4:CYCD1) | IC50 (Leishmania CRK3:CYC6; [3]) | activity towards promastigote L. major (in words) (WT promastigote L. major) | IC50 (WT promastigote L. major; [3]) | other results
1 | COc1ccc(-n2nnc3c(N4CCCC(O)C4)nc(CC4CCCCC4)nc32)cc1 (racemic) [Compound 5] | 5.3 µM | 9.7 µM | – | – | – | IC50 (Leishmania CRK3:CYC6; [1]): 4.2 µM; IC50 (WT promastigote L. major; [2]): 8.6 µM; activity towards the amastigote life cycle stage (in words) (WT amastigote L. major): no activity; IC50 (WT amastigote L. major; Lexicon azapurine HTS hits): > 50 µM
2 | COc1ccc(Cn2nnc3c(N4CCCC(O)C4)nc(CC4CCCCC4)nc32)cc1 (racemic) [Compound 19] | – | – | > 50 µM | showed a range of activity | 5 to 50 µM | –
3 | COc1ccc(-n2nnc3c(N4CCCC(O)C4)nc(Cc4ccccc4)nc32)cc1 (racemic) [Compound 29] | – | – | > 100 µM | showed a range of activity | 38.7 µM | inhibition of CRK3/CYC6 in vitro (in words) (Leishmania CRK3:CYC6): did not inhibit; inhibition of parasite growth in culture (in words) (WT promastigote L. major): inhibited parasite growth in culture; activity against amastigotes (in words) (WT amastigote L. major; [3]): Activity observed at 25 μM
4 | OC1CCCN(c2nc(CC3CCCCC3)nc3c2nnn3Cc2ccc(F)cc2)C1 (racemic) [Compound 33] | – | – | 47.6 µM | – | > 50 µM | IC50 (WT amastigote L. major; [3]): > 50 µM
5 | COc1ccc(-n2nnc3c(N(C)CCN(C)C4c5ccccc5CC4O)nc(CC4CCCCC4)nc32)cc1 (stereo not drawn) [Compound 1] | 2.6 µM | 12.5 µM | – | – | – | IC50 (WT promastigote L. major; [2]): > 10 µM; IC50 (WT amastigote L. major; Lexicon azapurine HTS hits): > 50 µM
6 | CCCN(c1nc(CC2CCCCC2)nc2c1nnn2-c1ccc(OC)cc1)C1CCCC1N(C)C (stereo not drawn) [Compound 2] | 3.4 µM | 5.6 µM | – | did not have activity | – | IC50 (WT promastigote L. major; [2]): > 10 µM; IC50 (WT amastigote L. major; Lexicon azapurine HTS hits): 38.4 µM
7 | COc1ccc(-n2nnc3c(NCC(C)O)nc(CC4CCCCC4)nc32)cc1 (stereo not drawn) [Compound 3] | 4.4 µM | 21.9 µM | – | – | – | IC50 (Leishmania CRK3:CYC6; [1]): 24.2 µM; IC50 (WT promastigote L. major; [2]): > 10 µM; IC50 (WT amastigote L. major; Lexicon azapurine HTS hits): > 50 µM
8 | COc1ccc(-n2nnc3c(N(C)C4COCC4N(C)C)nc(CC4CCCCC4)nc32)cc1 (stereo not drawn) [Compound 4] | 4.4 µM | 10.3 µM | – | – | – | IC50 (WT promastigote L. major; [2]): > 10 µM; IC50 (WT amastigote L. major; Lexicon azapurine HTS hits): > 50 µM
9 | COc1ccc(-n2nnc3c(N4CCCC(CO)C4)nc(CC4CCCCC4)nc32)cc1 (stereo not drawn) [Compound 6] | 6.9 µM | 9.2 µM | – | – | – | IC50 (Leishmania CRK3:CYC6; [1]): 4.4 µM; IC50 (WT promastigote L. major; [2]): > 10 µM; IC50 (WT amastigote L. major; Lexicon azapurine HTS hits): > 50 µM
10 | COc1ccc(-n2nnc3c(N(C)C(CN4CCCCC4)c4ccccc4)nc(CC4CCCCC4)nc32)cc1 (stereo not drawn) [Compound 7] | 7.8 µM | 19.5 µM | – | – | – | –
11 | CCC(CC)Nc1nc(CC2CCCCC2)nc2c1nnn2-c1ccc(OC)cc1 [Compound 8] | 8.1 µM | 26.9 µM | – | – | – | –
12 | COc1ccc(-n2nnc3c(NC(C)C)nc(CC4CCCCC4)nc32)cc1 [Compound 9] | 8.8 µM | 19.8 µM | – | – | – | IC50 (Leishmania CRK3:CYC6; [1]): 37.9 µM
13 | COc1ccc(-n2nnc3c(NC(Cc4ccccc4)Cn4nc(C)cc4C)nc(CC4CCCCC4)nc32)cc1 (stereo not drawn) [Compound 10] | 10.1 µM | 7.3 µM | – | – | – | –
14 | COc1ccc(-n2nnc3c(N4CC(N5CCN(c6ccccn6)CC5)C4)nc(CC4CCCCC4)nc32)cc1 [Compound 11] | 10.3 µM | 6.7 µM | – | – | – | –
15 | COc1ccc(-n2nnc3c(NC(CO)CC(C)C)nc(CC4CCCCC4)nc32)cc1 (stereo not drawn) [Compound 12] | 10.7 µM | 4.6 µM | – | – | – | –
16 | COc1ccc(Cn2nnc3c(NCc4ccccn4)nc(CC4CCCCC4)nc32)cc1 [Compound 17] | – | – | 39.1 µM | showed a range of activity | 7.4 µM | inhibition of parasite growth in culture (in words) (WT promastigote L. major): inhibited parasite growth in culture; IC50 (WT amastigote L. major; [3]): 5 to 15 µM
17 | COc1ccc(Cn2nnc3c(N4CCOCC4)nc(CC4CCCCC4)nc32)cc1 [Compound 20] | – | – | – | – | – | inhibition of CRK3/CYC6 in vitro (in words) (Leishmania CRK3:CYC6): did not inhibit
18 | COc1ccc(-n2nnc3c(O)nc(Cc4ccc(Br)cc4)nc32)cc1 [Compound 26] | – | – | > 50 µM | – | – | –
19 | COc1ccc(-n2nnc3c(N4CCOCC4)nc(CC4CCCCC4)nc32)cc1 [Compound 27] | – | – | 30.3 µM | showed a range of activity | 28.7 µM | inhibition of parasite growth in culture (in words) (WT promastigote L. major): inhibited parasite growth in culture; IC50 (WT amastigote L. major; [3]): 15 to 30 µM
20 | COc1ccc(-n2nnc3c(NCCN4CCOCC4)nc(CC4CCCCC4)nc32)cc1 [Compound 28] | – | – | > 50 µM | showed a range of activity | 8.3 µM | inhibition of CRK3/CYC6 in vitro (in words) (Leishmania CRK3:CYC6): did not inhibit; inhibition of parasite growth in culture (in words) (WT promastigote L. major): inhibited parasite growth in culture; IC50 (WT amastigote L. major; [3]): 5 to 15 µM
21 | COc1ccc(-n2nnc3c(NCCN4CCOCC4)nc(Cc4ccccc4)nc32)cc1 [Compound 30] | – | – | > 100 µM | showed a range of activity | 3.8 µM | inhibition of parasite growth in culture (in words) (WT promastigote L. major): inhibited parasite growth in culture; activity against amastigotes (in words) (WT amastigote L. major; [3]): Activity observed at 10 μM
22 | COc1ccc(-n2nnc3c(N4CCCC(CO)C4)nc(Cc4ccccc4)nc32)cc1 (stereo not drawn) [Compound 31] | – | – | > 20 µM | showed a range of activity | 40 µM | activity against amastigotes (in words) (WT amastigote L. major; [3]): Activity observed at 25 μM
23 | COc1ccc(-n2nnc3c(NCC(C)O)nc(Cc4ccccc4)nc32)cc1 (stereo not drawn) [Compound 32] | – | – | > 100 µM | – | > 50 µM | IC50 (WT amastigote L. major; [3]): > 25 µM
24 | ONc1nc(CC2CCCCC2)nc2c1nnn2Cc1ccc(F)cc1 [Compound 35] | – | – | > 50 µM | – | > 50 µM | IC50 (WT amastigote L. major; [3]): > 50 µM
